Measurements as given in patent US20090029992A1, “SUBSTITUTED PYRAZOLE COMPOUNDS” (priority 2007, published 2009).

Key:
recombinant Aurora A = molecular target: T1, recombinant Aurora A (Homo sapiens, UniProt O14965); assay: Aurora A (Aurora 2) inhibition assay, Z'-Lyte kinase assay; format: biochemical; conditions: ATP 10 μM, 1 h
T1 construct: purchased Upstate, Lake Placid, N.Y
T1 sequence (O14965 1-403): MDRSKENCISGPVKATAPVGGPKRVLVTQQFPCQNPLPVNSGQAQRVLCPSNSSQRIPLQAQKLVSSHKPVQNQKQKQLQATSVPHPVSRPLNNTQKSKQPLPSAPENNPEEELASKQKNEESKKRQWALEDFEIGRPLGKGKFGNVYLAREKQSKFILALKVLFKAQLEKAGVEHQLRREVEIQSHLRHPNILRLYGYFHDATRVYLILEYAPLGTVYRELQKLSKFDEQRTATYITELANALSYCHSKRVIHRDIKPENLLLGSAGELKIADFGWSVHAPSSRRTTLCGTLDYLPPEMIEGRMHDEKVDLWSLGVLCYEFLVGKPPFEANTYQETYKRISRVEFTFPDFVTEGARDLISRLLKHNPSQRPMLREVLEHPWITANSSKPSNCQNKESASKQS
Procedure: Compounds were tested for their potency against recombinant Aurora A (Upstate, Lake Placid, N.Y.) using the PanVera Z′-Lyte kinase assay kit—Ser/Thr 1 peptide (Invitrogen, Carlsbad, Calif.). Assays were carried out in kinase assay buffer (50 mM HEPES, pH 7.5, 10 mM MgCl2, 5 mM EGTA, 0.05% Brij-35, 2 mM DTT). Test compounds were initially dissolved in DMSO at 100× the highest tested concentration, then serially diluted to 4× test concentrations in kinase assay buffer. Next, Aurora A (final concentration 200-500 ng/mL), Z′-Lyte Ser/Thr 1 peptide (final concentration 2 μM) and ATP (final concentration 10 μM) were added according to the manufacturer's instructions. Assays were carried out in half-area 96-well white polystyrene assay plates (Corning, Corning, N.Y.) in a final volume of 20 μl. The reaction was allowed to proceed for 1 h at room temperature in the dark, at which point the development reagent and stop reagent were added according to the manufacturer's instructions. Coumarin (Ex. 400 nm, Em. 465 nm) and fluorescein (Ex. 400 nm, Em. 565 nm) fluorescence values were measured on a SpectraFluor Plus plate reader (Tecan, Durham, N.C.). The emission ratio (coumarin/fluorescein) was determined and used to calculate the percent phosphorylation for each well. Wells containing substrate but no kinase and wells containing a phosphopeptide control were used to set 0% and 100% phosphorylation values, respectively. Typically 20-40% of the substrate was phosphorylated in wells without inhibitor. Dose-response curves of relative Aurora A activity vs. inhibitor concentration were plotted with Grafit (Erithacus Software, Horley, Surrey, UK).

[1] = molecular target: T2, N-terminal His-tagged human Src (Homo sapiens, UniProt P12931); assay: Src kinase inhibition assay (33P-ATP filter assay); format: biochemical; conditions: 40 minutes at room temperature
T2 construct: His (N); purchased Upstate USA Inc, 706 Forest Street, Charlottesville, Va
T2 sequence (P12931 whole entry): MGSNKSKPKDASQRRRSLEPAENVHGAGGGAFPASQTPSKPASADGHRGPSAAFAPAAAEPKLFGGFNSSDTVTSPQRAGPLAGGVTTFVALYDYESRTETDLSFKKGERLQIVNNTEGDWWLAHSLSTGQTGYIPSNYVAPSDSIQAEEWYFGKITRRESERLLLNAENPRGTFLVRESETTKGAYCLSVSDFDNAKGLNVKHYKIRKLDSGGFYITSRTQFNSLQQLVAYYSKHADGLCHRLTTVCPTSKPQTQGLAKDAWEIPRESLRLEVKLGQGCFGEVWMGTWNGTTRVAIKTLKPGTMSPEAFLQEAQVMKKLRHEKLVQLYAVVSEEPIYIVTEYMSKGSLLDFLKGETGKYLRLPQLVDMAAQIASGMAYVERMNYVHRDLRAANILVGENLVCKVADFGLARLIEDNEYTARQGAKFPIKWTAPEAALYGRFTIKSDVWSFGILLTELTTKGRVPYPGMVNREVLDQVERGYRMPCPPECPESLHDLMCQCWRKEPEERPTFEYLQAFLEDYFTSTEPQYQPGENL

[2] = molecular target: T3, N-terminal His6-tagged recombinant human KDR, residues 790-end (Homo sapiens, UniProt P35968); assay: KDR kinase inhibition assay (33P-ATP filter assay); format: biochemical; conditions: 40 minutes at room temperature
T3 construct: recombinant human KDR, residues 790-end; His6 (N); purchased Upstate USA Inc, 706 Forest Street, Charlottesville, Va
T3 sequence (P35968 790-1356 limits assumed): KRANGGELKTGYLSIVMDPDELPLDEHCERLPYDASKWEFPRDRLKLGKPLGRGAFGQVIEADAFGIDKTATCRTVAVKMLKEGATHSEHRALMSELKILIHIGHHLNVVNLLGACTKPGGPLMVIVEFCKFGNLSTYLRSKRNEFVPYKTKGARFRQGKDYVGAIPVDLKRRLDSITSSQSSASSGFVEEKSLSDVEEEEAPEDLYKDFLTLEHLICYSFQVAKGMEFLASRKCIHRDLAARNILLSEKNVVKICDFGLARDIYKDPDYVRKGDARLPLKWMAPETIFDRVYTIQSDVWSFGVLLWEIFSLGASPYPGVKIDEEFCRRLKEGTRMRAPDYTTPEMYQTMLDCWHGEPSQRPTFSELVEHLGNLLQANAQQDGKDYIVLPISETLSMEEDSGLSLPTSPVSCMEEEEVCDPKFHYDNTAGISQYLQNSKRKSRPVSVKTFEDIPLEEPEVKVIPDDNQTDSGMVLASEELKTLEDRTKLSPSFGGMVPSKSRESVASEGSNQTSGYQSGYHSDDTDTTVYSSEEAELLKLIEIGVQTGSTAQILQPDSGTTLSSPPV
In short: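 Radiometric filter assay: reaction started with Mg acetate (10 mM)/[γ-33P]ATP mix, run 40 min at room temperature in 8 mM MOPS pH 7.0 with 0.2 mM EDTA, MBP substrate (0.33 mg/mL) and recombinant KDR 790-end (5-10 mU). Phosphate incorporation by scintillation counting of P30 filtermats, compared with uninhibited reactions.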

HCT116 cells = assay: Whole cell cytotoxicity assay, Sulforhodamine B; format: cell-based; conditions: Homo sapiens, HCT-116, HCT116, 96 hours incubation, SRB
In short: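 HCT116 cells (500/well) in DMEM/10% FBS/2 mM glutamine were preincubated 24 h, then exposed to compound for 96 h at 37 °C, 5% CO2, in duplicate. Cells were fixed with TCA and stained with sulforhodamine B (A570). GI50, TGI and LC50 were derived relative to a time-zero plate and an untreated control.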

Compound | IC50 (recombinant Aurora A) [nM] | IC50 [1] [nM] | IC50 [2] [nM] | IC50 (HCT116 cells; read-out: IC50 values in this assay (HCT116 cell growth)) [nM] | IC50 (recombinant Aurora A; group with IC50 greater than 100 nM) [nM] | GI50 (HCT116 cells; read-out: GI50 HCT116 cell growth) [nM]
Cc1cc(Nc2cc(N3CCN(C)CC3)nc(-c3ccccc3F)n2)n[nH]1 [Compound 34, 2-(2-fluorophenyl)-N-(5-methyl-1H-pyrazol-3-yl)-6-(4-methylpiperazin-1-yl)pyrimidin-4-amine] | ≤ 100 | ≤ 100 | ≤ 100 | 1000 to 10000 | – | –
Cc1cc(Nc2cc(N3CCN(C)CC3)nc(-c3ccc(F)cc3F)n2)n[nH]1 [Example 172, 2-(2,4-difluorophenyl)-N-(5-methyl-1H-pyrazol-3-yl)-6-(4-methylpiperazin-1-yl)pyrimidin-4-amine] | – | ≤ 100 | ≤ 100 | – | ≤ 1000 | ≤ 1000
